Some test systems named below: SR leukemia; LOX IMVI melanoma; MDA-N; SNB-75 CNS; M14 melanoma; CCRF-CEM leukemia; RPMI-8226 leukemia; HT29 colon; ACHN renal; A498 renal; MDA-MB-231 breast; TK-10 renal; SF-268 CNS; SN12C renal; OVCAR-3 ovarian; OVCAR-5 ovarian; T-47D breast; RXF 393 renal; IGROV1 ovarian; NCI-H23 lung.
Common to all, as to assay: NCI anticancer screen, dose series, 48 h

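Step 1: Grow cells in 96-well plates. Step 2: Expose to compound for 48 hours at 5 concentrations. Step 3: Interpolate endpoints linearly; if unreached, use highest concentration. TGI: concentration producing complete growth inhibition.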

The text below walks through data of PubChem BioAssay (NCI).

For `COc1cc(CCNC2=CC(=O)c3ncccc3C2=O)ccc1O`, the TGI in the assay on SR leukemia is 38.7 µM; in the assay on LOX IMVI melanoma, 6.08 µM; in the assay with MDA-N, 2.72 µM; in the assay with SNB-75 CNS, 4.73 µM; with M14 melanoma, 3.05 µM; in the assay on CCRF-CEM leukemia, > 100 µM. The TGI in the assay with RPMI-8226 leukemia worked out at 30.5 µM; in the assay with HT29 colon, 28.4 µM; in the assay with ACHN renal, 29 µM; in the assay on A498 renal it was 32.4 µM; in the assay with MDA-MB-231 breast it was 6.24 µM; with TK-10 renal it was 70.8 µM. Further, the TGI with SF-268 CNS was 47.4 µM; with SN12C renal, 6.71 µM; in the assay on OVCAR-3 ovarian, 5.97 µM; with OVCAR-5 ovarian, 22.7 µM; with T-47D breast, > 63.6 µM; in the assay on RXF 393 renal, 18 µM. The results for the TGI in the assay on IGROV1 ovarian and with NCI-H23 lung were 10.1 µM and 11.8 µM, respectively.

On to `COC1=C(OC)C(=O)c2cc(C)c(=O)c(C)cc2C1=O`, for which the TGI in the assay with SR leukemia was > 22.6 µM; in the assay with LOX IMVI melanoma it was > 39 µM; in the assay with MDA-N, 6.84 µM; with SNB-75 CNS, 33 µM; with M14 melanoma, 30.8 µM; with CCRF-CEM leukemia it was 7.06 µM. Besides, the TGI in the assay with RPMI-8226 leukemia is 40.7 µM; in the assay with HT29 colon, 50.5 µM; in the assay on ACHN renal, 31.1 µM; in the assay on A498 renal, 40.7 µM; in the assay with MDA-MB-231 breast, 20.7 µM; in the assay with TK-10 renal it was 34 µM. Besides, the TGI with SF-268 CNS was 37.1 µM; with SN12C renal, 7.08 µM; in the assay with OVCAR-3 ovarian it was 24 µM; with OVCAR-5 ovarian, 47.6 µM; with T-47D breast, > 55.4 µM; with RXF 393 renal it was 29.4 µM. Also, the TGI in the assay with IGROV1 ovarian was determined as 33.2 µM; with NCI-H23 lung it was 34.2 µM.

Consider `O=[N+]([O-])C1=Cc2c(O)ccc(O)c2C2c3ccccc3NC12` (stereo not given), for which the TGI in the assay with SR leukemia is > 64.3 µM; in the assay with LOX IMVI melanoma, > 52.7 µM; with MDA-N, 39.3 µM; in the assay on SNB-75 CNS it was > 61.3 µM; in the assay with M14 melanoma, 28.2 µM; in the assay on CCRF-CEM leukemia it was > 22.7 µM. The TGI was 63.6 µM with RPMI-8226 leukemia; 26.4 µM in the assay with HT29 colon; 16 µM in the assay on ACHN renal; 29.8 µM in the assay with A498 renal; 31.4 µM in the assay with MDA-MB-231 breast; 30 µM with TK-10 renal. Moreover, the TGI in the assay on SF-268 CNS was 36.6 µM; with SN12C renal, 30.9 µM; in the assay with OVCAR-3 ovarian, 19.3 µM; with OVCAR-5 ovarian, 34.1 µM; with T-47D breast, > 55.8 µM; in the assay with RXF 393 renal, 26.4 µM. For the same compound, the TGI with IGROV1 ovarian worked out at 32.7 µM; in the assay on NCI-H23 lung, 15.8 µM.

With `O=C1C(CN2CCCC2)CCC1CN1CCCC1` (stereo not given), the TGI in the assay on SR leukemia was > 100 µM; with LOX IMVI melanoma it was > 51.9 µM; in the assay with MDA-N it was 29.9 µM; in the assay with SNB-75 CNS it was 33.4 µM; in the assay on M14 melanoma, 29.7 µM; with CCRF-CEM leukemia, > 60.1 µM. Further, the TGI in the assay on RPMI-8226 leukemia is 34.9 µM; with HT29 colon, 40.7 µM; in the assay on ACHN renal, 29.3 µM; with A498 renal, > 100 µM; in the assay on MDA-MB-231 breast, 26.7 µM; in the assay with TK-10 renal it was 32.6 µM. Also, the TGI with SF-268 CNS is 46.2 µM; in the assay with SN12C renal, > 53 µM; in the assay with OVCAR-3 ovarian, 32.1 µM; with OVCAR-5 ovarian, > 55.9 µM; in the assay on T-47D breast, 37.8 µM; with RXF 393 renal, 37.2 µM. For the same compound, the TGI in the assay with IGROV1 ovarian was > 82.3 µM; in the assay with NCI-H23 lung, 38.2 µM.

With `Nc1nc(NCc2ccccc2)cc(NCc2ccccc2)n1`, the TGI in the assay on SR leukemia was > 100 µM; with LOX IMVI melanoma, 45 µM; with MDA-N, 5.97 µM; in the assay with SNB-75 CNS, 13.1 µM; in the assay on M14 melanoma, 39.5 µM; in the assay on CCRF-CEM leukemia, > 100 µM. For the same compound, the TGI in the assay on RPMI-8226 leukemia was 24.6 µM; in the assay with HT29 colon, 11.9 µM; with ACHN renal, 28.1 µM; in the assay with A498 renal, 14.5 µM; in the assay with MDA-MB-231 breast it was 22.4 µM; in the assay with TK-10 renal, 22.3 µM. Also, the TGI turned out to be 19.3 µM in the assay on SF-268 CNS; 32.4 µM in the assay with SN12C renal; 20.2 µM with OVCAR-3 ovarian; 50.4 µM in the assay on OVCAR-5 ovarian; 25.9 µM in the assay on T-47D breast; 26.6 µM with RXF 393 renal. Moreover, the figures for the TGI with IGROV1 ovarian and with NCI-H23 lung were 23.9 µM and 20 µM, respectively.

Consider `NS(=O)(=O)c1ccc(NCc2cccc3c(=O)c4ccc(Cl)cc4oc23)cc1`, for which the TGI with SR leukemia was > 51.3 µM; with LOX IMVI melanoma it was > 100 µM; in the assay on MDA-N it was > 80.2 µM; with SNB-75 CNS it was > 96.6 µM; in the assay with M14 melanoma, > 93.1 µM; with CCRF-CEM leukemia, > 52.6 µM. The TGI with RPMI-8226 leukemia is > 92.2 µM; with HT29 colon it was > 100 µM; in the assay with ACHN renal, > 100 µM; in the assay with A498 renal, > 100 µM; in the assay with MDA-MB-231 breast, > 100 µM; with TK-10 renal, > 100 µM. Besides, the TGI was 64.4 µM with SF-268 CNS; > 100 µM in the assay with SN12C renal; > 100 µM in the assay on OVCAR-3 ovarian; > 100 µM with OVCAR-5 ovarian; > 100 µM in the assay with T-47D breast; > 100 µM with RXF 393 renal. The results for the TGI in the assay with IGROV1 ovarian and in the assay on NCI-H23 lung were > 68.8 µM and > 80 µM, respectively.
